These are literature values, as cited in publication PMC2698789 (Pancreas, 2008).

This data set deals with sst 2 receptor.

Structures are written as SMILES.

Take `C[C@@H](O)[C@@H]1NC(=O)[C@H](CCCCN)NC(=O)[C@@H](Cc2c[nH]c3ccccc23)NC(=O)[C@H](Cc2ccccc2)NC(=O)[C@@H](NC(=O)[C@H](N)Cc2ccccc2)CSSC[C@@H](C(=O)N[C@H](CO)[C@@H](C)O)NC1=O` [octreotide, Octreotide acetate]: the “Receptor subtype preference among somatostatin receptors sst 1–sst 5” value is on record as “binds preferentially to sst 2”.
